According to patent US20080064053A1, “Genotoxicity Testing” (priority 2003, published 2008):
Values joined by “and” are separate entries in the source; they are usually repeats but may differ in a detail not shown here. Identical values can stand only once. Like-named read-outs stand apart in the source and are kept apart here.

Experiments:
SOS umuC = conditions: cited from earlier work
[1] = test system: RAD54 promoter-yEGFP reporter; test: Fluorescence assay with intact yeast cells in cuvettes, RAD54-GFP reporter plasmid pWDH445 and rearranged derivatives; type: cell-based, Saccharomyces cerevisiae; conditions: 0.005% MMS, 15 hours
Procedure: Starter cultures were initiated by inoculating 1.5 ml of F1 medium (plus appropriate nutritional supplements and 2% glucose) in sterile 15 ml polythene centrifuge tubes with small portions of colonies, picked by inoculating loop from stock plates. These starter cultures were grown for up to 24 hours at 30° C. with shaking (at 120 rpm) and were used as the source of inoculum for the assay cultures. Cells were inoculated into 1.5 ml F1 cultures in 15 ml polythene centrifuge tubes to give an initial OD600 nm of ˜0.1 (typically a 10-15 μl inoculum per 1.5 ml culture). The lids of the tubes were left one-quarter unscrewed, but held in place by masking tape, to ensure maximum oxygenation for GFP maturation. Half of the tubes were treated with 0.005% methyl methanesulphonate (MMS, methanesulphonic acid methyl ester) and half left as unchallenged controls. MMS was purchased as a liquid and this stock solution was taken to be 100%. […] For the measurement of intact yeast cell fluorescence of cells grown in YPD or SD, the cells were washed twice in sterile water to remove traces of autofluorescent medium and resuspended in 1.5 ml of sterile water. […] 4-window cuvettes were necessary since measurement of fluorescence emission is performed perpendicular to the path of excitation light.
Fluorescence measurements were performed with a Perkin-Elmer LS50B Fluorescence Spectrometer (Perkin-Elmer Ltd., Beaconsfield, UK). […] For the yEGFP expressing reporter, the excitation and emission wavelengths were set to 490 nm and 518 nm respectively (due to the altered fluorescence characteristics of yEGFP), with 5 nm slit widths. To account for differences in cell numbers between YPD or SD assay cultures, the OD600 nm was recorded for each cuvette. Similarly, in order to measure protein extraction efficiency, light absorption at 280 nm (OD280 nm) was measured for crude cell extracts. […] The y-axis on uncorrected fluorescence scans gives raw data in the form of machine defined fluorescence intensity (“INT”) units. […]

[2] = test system: RAD54 promoter-GFP reporter (pGen001); conditions: for GSA genotoxicity result: GenT01 yeast, overnight at 25° C., 2% DMSO diluent, no S9
[3] = test system: RNR2 regulatory element-GFP reporter; test: RNR2-GFP reporter assay (pGenRNR2), cuvette and microplate; type: cell-based, Saccharomyces cerevisiae; conditions: yeast test strain transformed with pGenRNR2
Excerpt: (§1) In addition to the RAD54 vectors described in the previous Examples, the inventors constructed an FF18984 reporter strain containing a replicative plasmid harbouring an RNR regulatory element. The vectors pGenRNR2 or pGenRNR3 are shown in FIGS. 24 and 25, respectively, and contain the upstream non-coding DNA sequence of the RNR2 gene or RNR3 gene fused to the yeast-enhanced Aequorea victoria GFP gene. A control FF18984 strain containing an identical plasmid except that 2 base pairs have been removed at the start of the GFP gene, such that no GFP is made, was also examined.
In order to test the brightness of the reporter for RNR2 constructs, similar methodology was used as for RAD54 constructs, as described in the previous Examples, but using instead pGENRNR2.

[4] = test system: RNR3 regulatory element-GFP reporter; test: RNR3-GFP reporter microplate assay (pGenRNR3); type: cell-based, Saccharomyces cerevisiae; conditions: yeast test strain transformed with pGenRNR3
Excerpt: as §1
In order to test the brightness of the reporter for RNR3 constructs, similar methodology was used as for RAD54 constructs, as described in the previous Examples, but using instead pGENRNR3.

[5] = test system: yeast strain GenT01 (FF18984); test: GreenScreen assay (GSA), cytotoxicity: final cell density by absorbance; conditions: GenT01 yeast, overnight at 25° C.
Procedure: The following standard protocol was followed. A 1 mM stock of the test chemical was prepared in 2% v/v aqueous DMSO, and used to make 2 identical dilution series across the microplate and a ‘control’ (see below). To achieve this, 150 microlitres of the test chemical solution were put into 2 microplate wells. Each sample was serially diluted by transferring 75 microlitres into 75 microlitres of 2% DMSO, mixing, and then taking 75 microlitres out and into the next well. This produced 9 serial dilutions of 75 microlitres each.
75 microlitres of the yeast suspension were added to each well of the diluted chemical: GenT01 to one series and GenC01 to the second, and to appropriate standards and controls. After the plates were filled, they were sealed using either a gas permeable membrane (Breath-easy, Diversified Biotech, USA) or a plastic lid, and then incubated without shaking, overnight at 25° C.
Following overnight incubation, fluorescence and absorbance data were collected from the microplates. […] Absorbance was measured through a 620 nm filter in both instruments. […] Fluorescence data were divided by absorbance data to give ‘brightness units’, the measure of average GFP induction per cell. […] In this way, one can distinguish between a small number of highly fluorescent cells and a large number of weakly fluorescent cells. In order to correct for induced cellular autofluorescence and intrinsic compound fluorescence, the brightness values for the GenC01 strain were subtracted from those of GenT01. This makes visual assessment of the data more reliable.
The cytotoxicity threshold is set at 80% of the cell density reached by the untreated control cells.
Table 12 lists chemicals/solvents that are often used with test samples, to promote dissolution etc. […] If these chemicals are used to dissolve compound stock solutions, they should also be included in the diluent used to make the compound dilution series. […] Interference of DMSO, a free radical scavenger, in the recombinogenic properties of several oxidising agents has previously been reported.

SOS lux = conditions: cited from earlier work

SMILES: COS(C)(=O)=O [MMS, methyl methanesulfonate]
- SOS UMUC ASSAY (M), LEC (SOS umuC): 0.00015 M
- induction ratio ([1]; FF18984 cells bearing normal pWDH445): 7.72 and 5.5
- induction ratio ([1]; FF18984 cells re-transformed with modified (rearranged) plasmid): 5.2
- induction ratio ([1]; original bright variant FF18984 cells carrying pWDH445): 3.27
- GSA genotoxicity result [2]: induced
- GSA genotoxicity result ([2]; listed as Methyl methanesulfonate): genotoxic
- GSA (M), lowest effective concentration (LEC) ([2]; S9 −): 9.3e-06 M
- brightness/fluorescence of GFP reporter [3]: induced
- fluorescence induction by the reporter [4]: increases with increasing concentration
- GSA cytotoxicity result [5]: strongly cytotoxic
- SOS LUX ASSAY (M), LEC (SOS lux): 7.3e-05 M
